We go through five substances from publication PMC8927846 (Materials Today Bio, 2022).

What is called Kd is the constant that tells how readily two partners part at equilibrium.

One data set deals with hiPS-BMEC. The data set can be described thus: Confocal imaging of uptake and colocalization in hiPS-BMEC. Type of data set: cell-based, human. The following applies: 125 nM AF 488-Tf, 1250 nM unlabeled Tf, 1 h, 37 °C.
The next data set relates to HBEC. Description: Confocal imaging of uptake in HBEC. It counts as cell-based, human. Particulars: 125 nM AF 488-Tf, 1250 nM unlabeled Tf, 1 h, 37 °C.
The test system of data set [1] is hiPS-BMEC (human iPS-derived BMEC-like cells) monolayer. Description: Transwell permeability across hiPS-BMEC monolayer. Type of data set: in vitro ADME. The following applies: cys-T7 versus cys-Tfr-T12 peptide.
In data set [2] the target is transferrin receptor (TfR). The following applies: read-out: Dissociation constant Kd to TfR; cited from earlier work.

As to “AF 488-Tf: Alexa Fluor 488 labeled transferrin”, the “Internalization on co-incubation with 10-fold excess of unlabeled Tf” value in the data set with hiPS-BMEC and in the data set on HBEC was “reduced internalization” throughout.
Regarding CHAIYPRH [cys-T7 peptide], in data set [1], the “Permeability compared between the two peptides” value is on record as “higher permeability”.
Regarding HAIYPRH [T7 peptide], the equilibrium dissociation constant (Kd) in data set [2] is 10 nM.
Take THRPPMWSPVWP [Tfr-T12 peptide]: the dissociation constant (Kd) in data set [2] is 15 nM.
As for “Tf: unlabeled transferrin, the native ligand of TfR”, the equilibrium dissociation constant (Kd) in data set [2] was 2.8 nM.
